This is an account of results in US20240058340A1, “COMPOSITIONS AND METHODS FOR TREATING CANCER” (The Regents of the University of California, priority 2020, published 2024).

In series [1] the test system is HCC827 (EGFR exon 19 deletion). The series can be described thus: Cellular IC50, Cell Titer Glo, HCC827 cell line. It counts as cell-based. The following applies: Homo sapiens, HCC827 cells, 72 hours. The protocol:
(§1) The PC-9 cell line was purchased from Sigma, and the HCC827 cell line was purchased from ATCC. Each cell line was maintained at ≤passage 10 at 37° C. in a humidified incubator with 5% CO2. Cells were plated in 96-well optical bottom plates (Corning #3903; Corning, NY) at a cell density of 5,000 cells/well, allowed to adhere for minimally 16 hours, and subsequently treated with the test compounds using an 11-point serial dilution (1:3) in duplicate using an HP D300 digital 4 dispenser (Tecan, Morrisville, NC). 72 hours after addition of the test compounds, Cell Titer Glo reagent (Promega, Madison, WI) was added to the plate according to manufacturer's protocol and luminescence measured using a Spectramax M5 (Molecular Devices, San Jose, CA). IC50s were calculated using the 4-parameter variable slope curve fit using the equation below where, Y and X are variables plotted, Top and Bottom are plateaus in the units of the Y axis, LogIC50 is the Log transformation of the IC50 value and HillSlope is the Hill Slope for the curve and describes curve steepness (GraphPad Prism, version 6.07, GraphPad Software, Inc.). Y=Bottom+(Top−Bottom)/(1+10((LogIC50−X)*HillSlope))).
In general terms: ATP-based viability assays read luminescence as a measure of living cells.

The subject of series [2] is PC-9 (EGFR exon 19 deletion). Briefly: Cellular IC50, Cell Titer Glo, PC-9 cell line. It counts as cell-based. The following applies: Homo sapiens, PC-9 cells, 72 hours. Here is the method: as §1
Series [3] can be described thus: Brain penetration in non-tumor bearing mice. It counts as in vivo. As to conditions: for Brain Penetration (% of plasma): brain to plasma percentage; for Kpuu (Avg): unbound ratio of drug in brain to plasma. The source says:
Disclosed in table 5 Brain to plasma percentages and unbound ratios of drugs in brain to plasma of indicated drugs in non-tumor bearing mice

As a reminder, the IC50 is the concentration that inhibits the measured activity by half.

Turning to `CN1CCN(C[C@H]2COc3cc4ncnc(Nc5cccc(Br)c5F)c4cc3O2)CCC1C(F)(F)F` (stereo partly shown), the IC50 in series [1] came to 36.9 nM; in series [2], 54 nM.

Consider `Fc1c(I)cccc1Nc1ncnc2cc3c(cc12)OCCO3` [JGK042], for which, in series [3], the “Brain Penetration (% of plasma)” value is reported as 167.6 % of plasma and the “Kpuu (Avg)” value was 1.033.

`Fc1c(Cl)cccc1Nc1ncnc2cc3c(cc12)OCCO3` [JGK010]: in series [3], the “Brain Penetration (% of plasma)” value was 106.4 % of plasma and the “Kpuu (Avg)” value is given as 1.045.

For the compound `Fc1cccc(Nc2ncnc3cc4c(cc23)OCCO4)c1F` [JGK028], in series [3], the “Brain Penetration (% of plasma)” value is on record as 106.2 % of plasma and the “Kpuu (Avg)” value is recorded as 1.037.

Consider `CN1CCN(C[C@H]2COc3cc4ncnc(Nc5cccc(Br)c5F)c4cc3O2)CC(F)(F)C1`, for which the values for the IC50 in series [1] and in series [2] were 50.6 nM and 140 nM, respectively.

For the compound `C#Cc1cccc(Nc2ncnc3cc4c(cc23)OCCO4)c1` [JGK005], in series [3], the “Brain Penetration (% of plasma)” value is reported as 64.8 % of plasma and the “Kpuu (Avg)” value was determined as 0.491.

For the compound `C#Cc1cccc(Nc2ncnc3cc4c(cc23)OCCO4)c1F` [JGK038], in series [3], the “Brain Penetration (% of plasma)” value was 84.3 % of plasma and the “Kpuu (Avg)” value amounted to 0.575.

In the case of `CN1CCC12CN(C[C@H]1COc3cc4ncnc(Nc5cccc(Br)c5F)c4cc3O1)C2`, the results for the IC50 in series [1] and in series [2] were 7 nM and 9.4 nM, respectively.

On to `CN1CC2(C1)CN(C[C@H]1COc3cc4ncnc(Nc5cccc(Br)c5F)c4cc3O1)C2`, for which the IC50 in series [1] is 5.9 nM; in series [2], 10.1 nM.

Regarding `CN1CCC2CN(C[C@H]3COc4cc5ncnc(Nc6cccc(Br)c6F)c5cc4O3)CC21` (stereo partly shown), the IC50 was 5.9 nM in series [1] and 12.9 nM in series [2].

As to `CN1CC2CN(C[C@H]3COc4cc5ncnc(Nc6cccc(Br)c6F)c5cc4O3)CC2C1` (stereo partly shown), the IC50 in series [1] worked out at 14.3 nM; in series [2], 21.7 nM.
